Experimental data reported in US11077151B2, “Ascaroside treatment of autoimmune and inflammatory diseases” (California Institute of Technology, priority 2016, dated 2021).

Tests used:
IL-6 receptor = target: T1, IL-6 receptor (Homo sapiens, UniProt P08887); details: cited from earlier work
T1 construct: host or cells: human patients (endogenous receptor)
T1 sequence (P08887 20-468): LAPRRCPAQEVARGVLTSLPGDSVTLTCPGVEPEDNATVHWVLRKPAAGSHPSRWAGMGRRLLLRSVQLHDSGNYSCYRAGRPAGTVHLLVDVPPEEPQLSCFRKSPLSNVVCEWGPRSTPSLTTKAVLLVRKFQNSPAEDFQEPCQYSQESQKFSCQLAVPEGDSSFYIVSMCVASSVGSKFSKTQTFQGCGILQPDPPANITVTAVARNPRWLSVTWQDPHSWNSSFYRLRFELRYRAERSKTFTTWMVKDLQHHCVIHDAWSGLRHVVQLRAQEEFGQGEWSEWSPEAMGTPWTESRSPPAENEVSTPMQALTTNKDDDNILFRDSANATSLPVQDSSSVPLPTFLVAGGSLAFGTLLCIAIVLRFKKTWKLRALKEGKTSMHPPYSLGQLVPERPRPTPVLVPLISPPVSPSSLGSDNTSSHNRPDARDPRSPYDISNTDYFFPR

[1] = tested on: IL-6 secretion, bone marrow-derived mouse dendritic cells; assay: IL-6 secretion by TNF-α stimulated bone marrow dendritic cells (ELISA); assay type: cell-based; details: different concentrations of ascr #7
Procedure: (§1) Bone marrow was extracted from femurs of C57BL/6 mice (6-12 weeks of age). These mice were euthanized by CO2 inhalation and their femurs were removed. After removing the remaining flesh from the bone, they were cut at the metaphysis. Bone marrow was flushed out using a syringe filled with RPMI. The extracted marrow was further broken down by resuspension with syringe. The mixture was centrifuged and the pellet was re-suspended in RPMI. […] 20 ng of GM-CSF was added to each well. At day 3, and every 3 days thereafter, the media was replaced. Cells were used for experiments between day 7-9.
(§2) Bone marrow dendritic cells were collected between day 7-9 of culture. Cells were washed twice and counted. Ascr #7 in water or RPMI were placed in corresponding wells, and are allowed to dry. 10^6 cells were then plated in each well in a 24 well culture plate. Cells were left to incubate with ascr #7 for 5 minutes. Following the brief incubation, different TNFα was added to the wells. These bone marrow dendritic cells were then cultured at 37° C. for 18-72 hours. Cells were collected via the pellet generated by centrifuge. The supernatant was also preserved. EBioscience ELISA kits was used to determine the concentration of different cytokines present in each well.

[2] = tested on: NOD/ShiLtJ mouse model of Type 1 Diabetes; assay: NOD/ShiLtJ mouse model of Type 1 Diabetes; assay type: in vivo; details: 100 ng ascr #7 i.p. three times a week
Procedure: The NOD/ShiLtJ (Jackson Laboratories) mouse model of Type 1 Diabetes was used These mice typically develop hyperglycemia around 17-18 weeks of life. Either saline or 100 ng ascr #7 was administered three times a week via intraperitoneal injection. Blood glucose levels were determined in the same mouse over time, via the collected of tail vein blood (as shown in FIG. 4A) at multiple time points. […] 8 mice were injected with saline and 8 mice were injected with ascr #7, as described above.

[3] = tested on: ovalbumin model of murine asthma (C57BL/6 mice); assay: Ovalbumin model of murine asthma; assay type: in vivo, mouse
Procedure: Adult C57BL/6 mice were sensitized by administering 2 ug OVA (Sigma-Aldrich) and 1 mg alum (Thermo) with 50 ng ascr #7 or saline, via intraperitoneal injection, on Day 0 and 14. On day 24, the mice were challenged with intranasal administration of saline containing 100 μg OVA, under isoflurane anesthesia. Histologic sections were stained with H&E or PAS to score for eosinophilia, goblet cell metaplasia, and airway hyper-reactivity. Mice were also placed in a computer controlled small animal ventilator (SCIREQ) to score for airway hyper-reactivity following methacholine challenge. […] Animals with asthma have higher resistance of flow, which would be represented as higher “RL” values in FIG. 3B. […] Lungs were collected, postmortem, and then sectioned and stained to show the presence of eosinophils and mucus. […] In FIG. 3C, the asthmatic mouse lung, here labeled “Control” has a large number of mucus and eosinophils that surround the bronchioles and occupy the alveolar space; wherein the thick barriers would prohibit oxygen from easily diffusing.

[4] = tested on: IL-1β secretion, bone marrow-derived mouse dendritic cells; assay: IL-1β secretion by TNF-α stimulated bone marrow dendritic cells (ELISA); assay type: cell-based; details: different concentrations of ascr #7
Procedure: as §1, §2

[5] = tested on: T cell transfer model of colitis, Rag -/- mice; assay: T cell transfer model of colitis (IBD); assay type: in vivo, mouse; details: 300 ng ascr #7 i.p. every 3 days, day 14 to 28
Procedure: A T cell transfer model of colitis where 10^6CD4+ T cells were transferred to adult Rag −/− mice was used, and either saline or 300 ng ascr #7 were administered via intraperitoneal injection every 3 days between day 14 and day 28. On day 28, the mice were euthanized and colon analysis was performed. n=3 mice per group. […] The normal mouse colon is long, skinny, and has discrete fecal pellets. The diseased mouse colon, with IBD, has a shortened, dilated colon, with diarrhea instead of discrete fecal pellets.

[6] = ovalbumin model, 50 ng ascr #7 i.p.

In the case of “Tocilizumab: a humanized anti-IL-6 receptor antibody”, the “clinical activity of atopic dermatitis” value (IL-6 receptor; 3 patients with severe atopic dermatitis, Navarini et al. 2011) is given as “decreased clinical activity”, the “relapse rates, neuropathic pain and general fatigue, neuromyelitis optica” value (IL-6 receptor; after one year of treatment, Araki et al. 2014) is given as “decreased” and the “manifestations of eosinophilic fasciitis” value (IL-6 receptor; at 6 months, Espinoza et al. 2015) is given as “remission of both articular and cutaneous manifestations”. For the same compound, the “disease remission, severe multisystemic microscopic polyangiitis” value (IL-6 receptor; one patient, Berti et al. 2015) was “complete and sustained disease remission”, the treatment of uveitis (IL-6 receptor; patients, Mesquida et al. 2014) was “effective” and the “inflammatory response and quality of life measures, Cogan's syndrome” value (IL-6 receptor; person, relapsed after prednisone, Shibuya et al. 2013) was “successfully improved”.
With `C[C@H](CC/C=C/C(=O)O)O[C@@H]1O[C@@H](C)[C@H](O)C[C@H]1O` [ascr #7] the IL-6 level ([1]; dendritic cells not stimulated with TNF-α, FIG. 1 left) was “very low levels of IL-6”, the “secreted IL-6 level” value ([1]; dendritic cells stimulated with TNF-α, FIG. 1 right) was “reduces these levels significantly” and the “blood glucose levels, individual mice” value ([2]; throughout 18 weeks, FIG. 4B) was “significantly reduced blood glucose levels”. For the same compound, the “blood glucose levels, group average vs untreated group” value ([2]; week 18, FIG. 4C) was “significantly lower blood glucose levels”, the conversion to hyperglycemia ([2]; NOD mice) was “delays conversion to hyperglycemia” and the “lung histology (boundaries between bronchioles and alveolar space; eosinophils and mucus)” value ([3]; 50 ng ascr #7 i.p. Day 0 and 14, stained lung sections, FIG. 3C) was “thin boundaries between the bronchioles and the alveolar space, comparable to the normal mice”. For the same compound, the “resistance of air flow (RL)” value ([3]; 50 ng ascr #7 i.p. Day 0 and 14 with OVA/alum, methacholine challenge, FIG. 3B) was “low resistance of air flow, with comparable levels to normal mice”, the “development of airway hyper-reactivity” value [3, 6] was “reduces” and the development of eosinophilia [3, 6] was “reduces”. The “development of goblet cell metaplasia” value [3, 6] was “reduces”, the IL-1β level ([4]; dendritic cells not stimulated with TNF-α, FIG. 2 left) was “very low levels of IL-1β” and the “secreted IL-1β level” value ([4]; dendritic cells stimulated with TNF-α, FIG. 2 right) was “reduces these levels significantly”. The “development of abnormal lumen dilation” value [5] was “markedly reduces”, the “development of colon shortening” value [5] was “markedly reduces” and the development of diarrhea [5] was “markedly reduces”. For the same compound, the “colon appearance on day 28” value ([5]; FIG. 5) was “normal appearing colon, which is long, skinny, and contains discrete fecal pellets”.
